# Literature values as cited in US20230285554A1, “COMBINED MEDICATION FOR TREATING SOFT TISSUE SARCOMA” (CHIA TAI TIANQING PHARMACEUTICAL GROUP CO., LTD., priority 2020, published 2023).
# Tested on: STS
# Conditions: first-line chemotherapy
row,SMILES,efficacy in words
1,COc1cccc2c1C(=O)c1c(O)c3c(c(O)c1C2=O)C[C@@](O)(C(=O)CO)C[C@@H]3O[C@H]1C[C@H](N)[C@H](O)[C@H](C)O1 [adriamycin],best efficacy
2,O=P1(NCCCl)OCCCN1CCCl (centres unmarked) [ifosfamide],best efficacy
